# Test results taken from patent publication US5532223A, “Use of aqueous soluble glucan preparations to stimulate platelet production” (priority 1995, dated 1996).
# Like-named read-outs stand apart in the source and are kept apart here.
# Key:
# Human Monocytes = test: TNF-α synthesis by human monocyte monolayers stimulated with glucan preparations (ELISA); assay type: cell-based; settings: for TNF-α / TNF-α Mean ± SD: glucan 1 mg/ml; for TNF-α Mean ± SD: Table 3; for TNF-α stimulation (in words): human monocytes, Tables 3 and 4
# Text: Human peripheral blood mononuclear cells were isolated (Janusz et al., (1987), J. Immunol., 138: 3897-3901) from normal citrated and dextran-treated blood, washed in Hank's balanced salts solution (HBSS), lacking calcium, magnesium, and phenol red, and purified by gradient centrifugation on cushions of Ficoll-Paque (Pharmacia Fine Chemicals, Piscataway, N.J.). The mononuclear cells were collected into HBSS, washed twice, resuspended in RPMI 1640 Medium (Gibco, Grand Island, N.Y.) containing 1% heat-inactivated autologous serum (56° C. for 30 min.), and counted on the Coulter counter.
# For the preparation of monocyte monolayers, 1 ml of 2.2×10^6 mononuclear cells/ml was plated into wells of 24-well tissue culture plates (CoStar, Cambridge, Mass.), incubated for 1 h at 37° C. in a humidified atmosphere of 5% CO2, and washed three times with RPMI to remove nonadherent cells. A second 1 ml aliquot of 2.2×10^6 mononuclear cells/ml was layered into each well and incubated for 2 hours as described above before removal of the nonadherent cells. By visual enumeration at 40× with an inverted phase microscope and a calibrated reticule, the number of adherent cells for 30 different donors was 0.77±0.20×10^6 per well (mean±SD). By morphology and nonspecific esterase staining, >95% of the adherent cells were monocytes.
# Monocyte monolayers were incubated at 37° C. in the CO2 chamber for 0 to 8 h with 0.5 ml of RPMI, 1% heat-inactivated autologous serum, 10 mM HEPES, and 5 mM MgCl2 in the absence and presence of various glucan preparations. The culture supernatant was removed, clarified by centrifugation at 14,000 g for 5 min at 4° C., and stored at -70° C. before assay of cytokines.
# The data are expressed as pg per 10^6 monocytes, which was calculated by dividing the quantity of cytokine in 0.5 ml of supernatant by the number of monocytes per well.
# [1] = system: IL-1, TNF, IL-6, IL-8 and GM-CSF; test: Clinical trial in healthy males: serum cytokines; assay type: in vivo, human
# Procedure: (§1) A randomized, double-blind, placebo-controlled clinical trial was conducted on healthy males to evaluate the safety of neutral soluble glucan (2.25 mg/kg) injected by intravenous infusion compared to a placebo control. […] The results are consistent with the in vitro data reported in the earlier examples.
# monocytes = test: Clinical trial in healthy males: monocyte counts; assay type: in vivo, human; settings: 2.5 mg/kg, N 6
# full thickness wounds = test: Wound healing, full thickness wound in hairless mice; assay type: in vivo, mouse
# Procedure: Wound healing studies were performed on hairless mouse models having full thickness wounds with and without Staphylococcus aureus infection.
# Incisions were closed using steel clips at 1 cm intervals.
# […] Two micrograms of neutral soluble glucan/mouse per day was topically applied. Wounds were examined daily and rank-ordered for effectiveness of formulation for enhancement of visual based wound healing each day. Wounds were scored for closure on a scale of 0-5, with 5 indicating the most healing. In one group of mice that served as the infection model, the wound was treated with a culture of 10^7 Staphylococcus aureus 30 minutes after wounding and 2 hrs prior to treatment with the neutral soluble glucan formulation.
# Histological evaluation of the wound site of each test group was made. The dermis of the control group (untreated wound) was heavily infiltrated with both lymphocytes and monocytes/macrophages. However, re-epithelialization that occurred at the epidermal layer was incomplete.
# platelets = test: Platelet count in irradiated mice; assay type: in vivo, mouse; settings: single IV bolus 20 hours prior to 7.5-Gy total-body irradiation, fourteen days after irradiation, FIG. 7
# Procedure: The platelet proliferation stimulatory effect of the neutral soluble glucan was tested in an animal model system following irradiation or administration of the chemotherapeutic agent cisplatin.
# More specifically, neutral soluble glucan prepared as described in Example 1 was administered to groups of 10 mice in a single IV bolus 20 hours prior to radiation exposure. Mice were bilaterally exposed to a total-body irradiation of 7.5-Gy. Fourteen days after irradiation the mice were sacrificed and whole blood samples were analyzed for peripheral blood counts.
# [2] = system: Human Peripheral Blood Mononuclear Cells (IL-1β); test: In vitro IL-1β synthesis by human peripheral blood mononuclear cells (radioimmunoassay), stimulation and priming; assay type: cell-based; settings: for IL-1β: 24 hours, mean of two donors
# Procedure: (§2) Venous blood was obtained from healthy male volunteers and mononuclear cells were fractionated by Ficoll-Hypaque centrifugation. The mononuclear cells were washed, resuspended in endotoxin-free RPMI-1640 culture medium ultrafiltered to remove endotoxins as described elsewhere (Dinarello et al., 1987, J. Clin. Microbiol. 25:1233-8) at a concentration of 5×10^6 cells/ml and were aliquoted into 96-well microtiter plates (Endres et al., 1989, N. E. J. Med. 320:265-271). The cells were then incubated with either 1 ng/ml endotoxin (lipopoly-saccharide, E. coli 055:B5, Sigma, St. Louis), or 10 to 1000 ng/ml PGG, at 37° C. for 24 hours in 5% CO2 and then lysed by three freeze-thaw cycles (Endres et al., 1989, N. E. J. Med. 320:265-271). Synthesis of IL-1β and TNFα were determined by specific radioimmunoassays as described elsewhere (Lisi et al., 1987, Lymph Res. 6:229-244; Lonnemann et al., 1988, Lymph. Res. 7:75-84; Van der Meer et al., 1988, J. Leukocycte Biol. 43:216-223.
# (§3) To determine if neutral soluble glucan could act as a priming agent for cytokine synthesis with endotoxin, a known cytokine stimulant, mononuclear cells were pre-incubated with 1, 10, and 1000 ng/ml underivatized, aqueous soluble β-glucan for 3 hours at 37° C. in 5% CO2. The cells were washed to remove neutral soluble glucan and were then incubated with 1 ng/ml endotoxin as described above. IL-1β and TNFα were determined as described above.
# [3] = water
# [4] = system: β-glucan receptor on human monocytes; test: Avidity for the glucan receptor: inhibition of monocyte ingestion of zymosan particles; assay type: cell-based; settings: for % Inhibition of monocyte ingestion: mean of two experiments
# Procedure: Monolayers of human monocytes, prepared on siliconized glass coverslips (Czop et al., 1978, J. […] The monocyte monolayers were then washed twice with 50 ml of RPMI 1640 medium and were layered with 0.25 ml of 4.8×10^6 /ml zymosan particles (Czop and Austen, 1985, J. Immunol., 134:2588-2593). After a 30 minute incubation at 37° C., the monolayers were washed three times with 50 ml of Hank's balanced salt solution to remove noningested zymosan particles. The monolayer were then fixed and stained with Giemsa. The ingestion of zymosan particles by at least 300 monocytes per monolayer was determined by visual observation under a 1000× light microscope.
# The percent inhibition of monocyte ingestion was determined by subtracting the percentage of monocytes ingesting targets after pretreatment with the neutral soluble glucan from the percentage ingesting targets after pretreatment with buffer, dividing this number by the percentage ingesting targets after pretreatment with buffer and multiplying by 100.
# [5] = system: monocytes and neutrophils (killing activity); test: Ex vivo microbicidal activity of normal volunteers; assay type: in vivo, human; settings: 2.5 mg/kg, normalized with respect to the saline control, N 6
# [6] = system: polymicrobic infectious challenge (cecal inoculum); test: Rat model for intra-abdominal sepsis; assay type: in vivo; settings: rats
# [7] = system: Human Peripheral Blood Mononuclear Cells (TNFα); test: In vitro TNFα synthesis by human peripheral blood mononuclear cells (radioimmunoassay), stimulation and priming; assay type: cell-based; settings: for TNFα: 24 hours, mean of two donors
# Procedure: as §2, §3
# Staphylococcus aureus = test: Wound healing, full thickness wound infected with Staphylococcus aureus in hairless mice; assay type: in vivo, mouse; settings: wound treated with 10^7 Staphylococcus aureus; topical
# Procedure: Wound healing studies were performed on hairless mouse models having full thickness wounds with and without Staphylococcus aureus infection. […] Incisions were closed using steel clips at 1 cm intervals. Formulations of neutral soluble glucan in phosphate buffered saline were applied 30 minutes following wounding and reapplied at 24 hour intervals during the seven day post-operative period. Two micrograms of neutral soluble glucan/mouse per day was topically applied. Wounds were examined daily and rank-ordered for effectiveness of formulation for enhancement of visual based wound healing each day. Wounds were scored for closure on a scale of 0-5, with 5 indicating the most healing. In one group of mice that served as the infection model, the wound was treated with a culture of 10^7 Staphylococcus aureus 30 minutes after wounding and 2 hrs prior to treatment with the neutral soluble glucan formulation.
# neutrophils = test: Clinical trial in healthy males: absolute neutrophil counts; assay type: in vivo, human; settings: 2.5 mg/kg, N 6
# [8] = human, in vivo, iv
# Procedure: as §1
# [9] = mice treated topically for three days, in phosphate buffered saline
# [10] = pre-incubation 10-1000 ng/ml, then endotoxin as co-stimulant
substance,measurement,setting,value
Laminarin [reference compound],TNF-α,"Human Monocytes; Table 3, column 1",372 pg/10^6 monocytes
same,TNF-α,"Human Monocytes; Table 3, column 2",324 pg/10^6 monocytes
same,TNF-α,"Human Monocytes; Table 3, column 3",227 pg/10^6 monocytes
same,TNF-α Mean ± SD,Human Monocytes,308 ± 74 pg/10^6 monocytes
same,TNF-α,Human Monocytes; Table 4,1312 pg/10^6 monocytes
same,TNF-α stimulation (in words),Human Monocytes,stimulated
poly-(1-6)-β-D-glucopyranosyl-(1-3)-β-D-glucopyranose [Neutral soluble glucan],"elevation in IL-1, TNF, IL-6, IL-8 and GM-CSF",[1]; 2.25 mg/kg intravenous infusion,no observed elevation
same,changes in serum IL-1 and TNF,"[1]; over time, FIGS. 5 and 6",no changes occurred
same,"Monocyte Counts, Mean",monocytes; B = Baseline measurement,0.24 × 1000/μl
same,"Monocyte Counts, Mean",monocytes; Hour 8,0.63 × 1000/μl
same,"Monocyte Counts, Mean",monocytes; Hour 12,0.67 × 1000/μl
same,"Monocyte Counts, Mean",monocytes; Hour 24,0.31 × 1000/μl
same,histology of wounded tissue: cell infiltration,full thickness wounds; [9],heavy infiltration of macrophages and lymphocytes
same,histology of wounded tissue: tissue integrity,full thickness wounds; [9],Tissue integrity was good
same,wound healing (in words),"full thickness wounds; topically applied, two micrograms/mouse per day",accelerated wound healing within the dermal layer of the wound
same,platelet cell count relative to saline treated control levels,platelets,~3 fold
same,priming of IL-1β synthesis compared to endotoxin alone (in words),[2]; [10],did not result in any amplification
same,IL-1β,[2]; stimulant 10 ng/ml,0.13 ng/mL
same,IL-1β,[2]; stimulant 100 ng/ml,0.12 ng/mL
same,IL-1β,[2]; stimulant 1000 ng/ml,< 0.10 ng/mL
same,IL-1β synthesis over control buffer treated cells (in words),[2]; used alone as stimulant,did not induce increased levels
same,aqueous solubility,[3],approximately 100 mg/ml
same,aqueous solubility,[3]; pH 13,~150 mg/mL
same,receptor binding capacity (in words),[4]; 50 μg/ml and 500 μg/ml,higher receptor binding capacity than Peak B
same,% Inhibition of monocyte ingestion,[4]; 50 μg/ml,74%
same,% Inhibition of monocyte ingestion,[4]; 500 μg/ml,86%
same,TNF-α,"Human Monocytes; Table 3, column 1",44 pg/10^6 monocytes
same,TNF-α,"Human Monocytes; Table 3, column 2",51 pg/10^6 monocytes
same,TNF-α,"Human Monocytes; Table 3, column 3",33 pg/10^6 monocytes
same,TNF-α Mean ± SD,Human Monocytes,43 ± 9 pg/10^6 monocytes
same,TNF-α,Human Monocytes; Table 4,16 pg/10^6 monocytes
same,TNF-α stimulation (in words),Human Monocytes,no stimulation of TNF-α
same,Mean Change in % Killing,[5]; Day 2,48.96%
same,Mean Change in % Killing,[5]; Day 3,39.22%
same,Mean Change in % Killing,[5]; Day 6,31.17%
same,Mean Change in % Killing,[5]; Hour 3,42.86%
same,Mean Change in % Killing,[5]; Hour 6,32.33%
same,Mean Change in % Killing,[5]; Hour 24,20.90%
same,protection from lethal bacterial challenge (in words),[6],protects rats from lethal bacterial challenge
same,Mortality (dead/total),"[6]; 100 μg/0.2 ml intramuscularly 24 hours and 4 hours prior to challenge, P vs. Saline <0.01",2/10
same,priming of TNFα synthesis compared to endotoxin alone (in words),[7]; [10],did not result in any amplification
same,TNFα,[7]; stimulant 10 ng/ml,0.16 ng/mL
same,TNFα,[7]; stimulant 100 ng/ml,0.16 ng/mL
same,TNFα,[7]; stimulant 1000 ng/ml,0.14 ng/mL
same,TNFα synthesis over control buffer treated cells (in words),[7]; used alone as stimulant,did not induce increased levels
same,infection of the wound (in words),Staphylococcus aureus,effectively eliminated infection
same,progression to sepsis (in words),Staphylococcus aureus,prevented the progression to sepsis
same,"Absolute Neutrophil Counts, Mean",neutrophils; B = Baseline measurement,4.11 × 1000/μl
same,"Absolute Neutrophil Counts, Mean",neutrophils; Hour 8,11.29 × 1000/μl
same,"Absolute Neutrophil Counts, Mean",neutrophils; Hour 12,8.18 × 1000/μl
same,"Absolute Neutrophil Counts, Mean",neutrophils; Hour 24,5.32 × 1000/μl
same,fever or inflammatory reactions,[8],none of the patients experienced fever or inflammatory reactions
same,adverse effects,[8]; 2.25 mg/kg,No adverse effects were observed
